Source: the OligoGym collection
Oligonucleotides are written 5' to 3', each unit as a sugar letter and its base; * is a phosphorothioate linkage, no mark a phosphodiester; rarer units and linkages stand in square brackets, end groups in braces. Plain capitals give the bases only. d = 2'-deoxy (DNA); r = 2'-OH (RNA)
Also: test concentration or dose not given here.

What follows are substances tested against UBE2G1 (assay: reporter assay of Huesken 2005). Settings: siRNA.
“sense rArCrArCrUrGrUrGrGrArArArCrCrArUrCrArUdTdT / antisense rArUrGrArUrGrGrUrUrUrCrCrArCrArGrUrGrUdGdG” gave a normalised inhibition (eCFP-eYFP dual reporter) of 89.3%.
Work on “sense rArCrCrUrCrCrUrArArArArUrGrArArArUrUrCdTdT / antisense rGrArArUrUrUrCrArUrUrUrUrArGrGrArGrGrUdCdG” yielded a normalised inhibition (eCFP-eYFP dual reporter) of 39.5%.
For “sense rArCrCrUrGrCrUrArArUrGrUrUrGrArUrGrCrUdTdT / antisense rArGrCrArUrCrArArCrArUrUrArGrCrArGrGrUdGdA”, the normalised inhibition (eCFP-eYFP dual reporter) was 93.9%.
In the case of “sense rArGrArCrCrCrUrArArUrGrGrArGrArCrUrCrAdTdT / antisense rUrGrArGrUrCrUrCrCrArUrUrArGrGrGrUrCrUdGdC”, the normalised inhibition (eCFP-eYFP dual reporter) is reported as 89.8%.
“sense rArGrArCrUrCrArCrCrUrGrCrUrArArUrGrUrUdTdT / antisense rArArCrArUrUrArGrCrArGrGrUrGrArGrUrCrUdCdC” was tested, and the normalised inhibition (eCFP-eYFP dual reporter) was 81.1%.
With “sense rArGrArUrArCrArCrUrUrUrArUrGrArArGrGrUdTdT / antisense rArCrCrUrUrCrArUrArArArGrUrGrUrArUrCrUdGdG” the normalised inhibition (eCFP-eYFP dual reporter) was 78.7%.
Substance “sense rArGrArUrArGrArArArUrGrGrArGrArArUrUrUdTdT / antisense rArArArUrUrCrUrCrCrArUrUrUrCrUrArUrCrUdTdC” has a normalised inhibition (eCFP-eYFP dual reporter) of 102%.
With “sense rArGrArUrUrArUrCrCrCrCrUrCrCrGrArCrCrUdTdT / antisense rArGrGrUrCrGrGrArGrGrGrGrArUrArArUrCrUdTdT” the normalised inhibition (eCFP-eYFP dual reporter) was 84.2%.
“sense rArGrCrCrArGrArGrGrArArCrGrCrUrGrGrCrUdTdT / antisense rArGrCrCrArGrCrGrUrUrCrCrUrCrUrGrGrCrUdTdT” gave a normalised inhibition (eCFP-eYFP dual reporter) of 37.8%.
For “sense rArGrCrCrUrGrGrGrGrArArGrArUrArArGrUrAdTdT / antisense rUrArCrUrUrArUrCrUrUrCrCrCrCrArGrGrCrUdCdA”, the normalised inhibition (eCFP-eYFP dual reporter) was 78.6%.
Substance “sense rArGrUrGrUrCrArUrUrUrCrUrArUrGrCrUrGrGdTdT / antisense rCrCrArGrCrArUrArGrArArArUrGrArCrArCrUdAdA” has a normalised inhibition (eCFP-eYFP dual reporter) of 47.6%.
“sense rArUrArArGrUrArUrGrGrUrUrArUrGrArArArAdTdT / antisense rUrUrUrUrCrArUrArArCrCrArUrArCrUrUrArUdCdT” was tested, and the normalised inhibition (eCFP-eYFP dual reporter) was 69.3%.
Substance “sense rArUrCrCrArGrUrGrGrArArGrGrCrUrUrUrUrCdTdT / antisense rGrArArArArGrCrCrUrUrCrCrArCrUrGrGrArUdTdT” has a normalised inhibition (eCFP-eYFP dual reporter) of 65.4%.
For “sense rArUrCrUrCrUrArCrCrGrArUrGrGrGrArArGrUdTdT / antisense rArCrUrUrCrCrCrArUrCrGrGrUrArGrArGrArUdCdA”, the normalised inhibition (eCFP-eYFP dual reporter) was 67.7%.
“sense rArUrGrArCrArArUrGrArUrCrUrCrUrArCrCrGdTdT / antisense rCrGrGrUrArGrArGrArUrCrArUrUrGrUrCrArUdCdT” was tested, and the normalised inhibition (eCFP-eYFP dual reporter) was 40.5%.
In the case of “sense rArUrGrGrUrUrArUrGrArArArArGrCrCrArGrAdTdT / antisense rUrCrUrGrGrCrUrUrUrUrCrArUrArArCrCrArUdAdC”, the normalised inhibition (eCFP-eYFP dual reporter) is reported as 39.2%.
With “sense rArUrGrUrUrGrArUrGrCrUrGrCrGrArArArGrAdTdT / antisense rUrCrUrUrUrCrGrCrArGrCrArUrCrArArCrArUdTdA” the normalised inhibition (eCFP-eYFP dual reporter) was 104%.
In the case of “sense rArUrUrGrGrCrCrCrUrCrCrArGrArUrArCrArCdTdT / antisense rGrUrGrUrArUrCrUrGrGrArGrGrGrCrCrArArUdAdA”, the normalised inhibition (eCFP-eYFP dual reporter) is reported as 36.1%.
Work on “sense rCrArArUrGrArUrCrUrCrUrArCrCrGrArUrGrGdTdT / antisense rCrCrArUrCrGrGrUrArGrArGrArUrCrArUrUrGdTdC” yielded a normalised inhibition (eCFP-eYFP dual reporter) of 86.7%.
Work on “sense rCrArCrCrCrArArArUrGrUrUrGrArUrArArArAdTdT / antisense rUrUrUrUrArUrCrArArCrArUrUrUrGrGrGrUrGdCdC” yielded a normalised inhibition (eCFP-eYFP dual reporter) of 73.1%.
For “sense rCrArGrArGrGrArArCrGrCrUrGrGrCrUrCrCrCdTdT / antisense rGrGrGrArGrCrCrArGrCrGrUrUrCrCrUrCrUrGdGdC”, the normalised inhibition (eCFP-eYFP dual reporter) was 42.5%.
“sense rCrArGrGrUrUrUrArArUrArGrArUrGrArCrArAdTdT / antisense rUrUrGrUrCrArUrCrUrArUrUrArArArCrCrUrGdCdA” showed a normalised inhibition (eCFP-eYFP dual reporter) of 97.5%.
Work on “sense rCrArUrGrArGrCrCrUrGrGrGrGrArArGrArUrAdTdT / antisense rUrArUrCrUrUrCrCrCrCrArGrGrCrUrCrArUrGdAdA” yielded a normalised inhibition (eCFP-eYFP dual reporter) of 76%.
Substance “sense rCrArUrUrArCrArGrArArArUrCrUrGrGrCrArCdTdT / antisense rGrUrGrCrCrArGrArUrUrUrCrUrGrUrArArUrGdAdA” has a normalised inhibition (eCFP-eYFP dual reporter) of 50.1%.
Work on “sense rCrCrArCrArCrUrGrUrGrGrArArArCrCrArUrCdTdT / antisense rGrArUrGrGrUrUrUrCrCrArCrArGrUrGrUrGrGdAdT” yielded a normalised inhibition (eCFP-eYFP dual reporter) of 86.1%.
In the case of “sense rCrCrCrUrCrCrGrArCrCrUrCrCrUrArArArArUdTdT / antisense rArUrUrUrUrArGrGrArGrGrUrCrGrGrArGrGrGdGdA”, the normalised inhibition (eCFP-eYFP dual reporter) is reported as 62.4%.
With “sense rCrCrUrArArArArUrGrArArArUrUrCrArUrUrAdTdT / antisense rUrArArUrGrArArUrUrUrCrArUrUrUrUrArGrGdAdG” the normalised inhibition (eCFP-eYFP dual reporter) was 69.6%.
“sense rCrCrUrGrCrUrArArUrGrUrUrGrArUrGrCrUrGdTdT / antisense rCrArGrCrArUrCrArArCrArUrUrArGrCrArGrGdTdG” was tested, and the normalised inhibition (eCFP-eYFP dual reporter) was 97.5%.
Work on “sense rCrUrArArUrGrGrArGrArCrUrCrArCrCrUrGrCdTdT / antisense rGrCrArGrGrUrGrArGrUrCrUrCrCrArUrUrArGdGdG” yielded a normalised inhibition (eCFP-eYFP dual reporter) of 71.9%.
In the case of “sense rCrUrCrCrCrUrArUrCrCrArCrArCrUrGrUrGrGdTdT / antisense rCrCrArCrArGrUrGrUrGrGrArUrArGrGrGrArGdCdC”, the normalised inhibition (eCFP-eYFP dual reporter) is reported as 62.9%.
In the case of “sense rCrUrCrCrUrArArArArUrGrArArArUrUrCrArUdTdT / antisense rArUrGrArArUrUrUrCrArUrUrUrUrArGrGrArGdGdT”, the normalised inhibition (eCFP-eYFP dual reporter) is reported as 87.9%.
“sense rCrUrCrUrArCrCrGrArUrGrGrGrArArGrUrCrCdTdT / antisense rGrGrArCrUrUrCrCrCrArUrCrGrGrUrArGrArGdAdT” showed a normalised inhibition (eCFP-eYFP dual reporter) of 68.3%.
In the case of “sense rCrUrGrGrGrGrArArGrArUrArArGrUrArUrGrGdTdT / antisense rCrCrArUrArCrUrUrArUrCrUrUrCrCrCrCrArGdGdC”, the normalised inhibition (eCFP-eYFP dual reporter) is reported as 55%.
“sense rGrArArGrUrCrCrUrUrArUrUrArUrUrGrGrCrCdTdT / antisense rGrGrCrCrArArUrArArUrArArGrGrArCrUrUrCdCdC” gave a normalised inhibition (eCFP-eYFP dual reporter) of 87.6%.
Work on “sense rGrArCrArArUrGrArUrCrUrCrUrArCrCrGrArUdTdT / antisense rArUrCrGrGrUrArGrArGrArUrCrArUrUrGrUrCdAdT” yielded a normalised inhibition (eCFP-eYFP dual reporter) of 103%.
“sense rGrArGrArArUrUrUrArArArArGrArArArArGrUdTdT / antisense rArCrUrUrUrUrCrUrUrUrUrArArArUrUrCrUrCdCdA” was tested, and the normalised inhibition (eCFP-eYFP dual reporter) was 56.4%.
“sense rGrArUrArArGrUrArUrGrGrUrUrArUrGrArArAdTdT / antisense rUrUrUrCrArUrArArCrCrArUrArCrUrUrArUrCdTdT” showed a normalised inhibition (eCFP-eYFP dual reporter) of 87.7%.
Substance “sense rGrArUrArCrArCrUrUrUrArUrGrArArGrGrUrGdTdT / antisense rCrArCrCrUrUrCrArUrArArArGrUrGrUrArUrCdTdG” has a normalised inhibition (eCFP-eYFP dual reporter) of 66%.
For “sense rGrArUrUrArUrCrCrCrCrUrCrCrGrArCrCrUrCdTdT / antisense rGrArGrGrUrCrGrGrArGrGrGrGrArUrArArUrCdTdT”, the normalised inhibition (eCFP-eYFP dual reporter) was 84.7%.
“sense rGrCrCrCrUrCrCrArGrArUrArCrArCrUrUrUrAdTdT / antisense rUrArArArGrUrGrUrArUrCrUrGrGrArGrGrGrCdCdA” was tested, and the normalised inhibition (eCFP-eYFP dual reporter) was 75.2%.
“sense rGrCrUrGrCrGrArArArGrArArUrGrGrArGrGrGdTdT / antisense rCrCrCrUrCrCrArUrUrCrUrUrUrCrGrCrArGrCdAdT” gave a normalised inhibition (eCFP-eYFP dual reporter) of 63.8%.
For “sense rGrCrUrGrGrCrUrCrCrCrUrArUrCrCrArCrArCdTdT / antisense rGrUrGrUrGrGrArUrArGrGrGrArGrCrCrArGrCdGdT”, the normalised inhibition (eCFP-eYFP dual reporter) was 64%.
Substance “sense rGrGrArArArCrCrArUrCrArUrGrArUrUrArGrUdTdT / antisense rArCrUrArArUrCrArUrGrArUrGrGrUrUrUrCrCdAdC” has a normalised inhibition (eCFP-eYFP dual reporter) of 54.4%.
Work on “sense rGrGrArArGrUrCrCrUrUrArUrUrArUrUrGrGrCdTdT / antisense rGrCrCrArArUrArArUrArArGrGrArCrUrUrCrCdCdA” yielded a normalised inhibition (eCFP-eYFP dual reporter) of 71%.
With “sense rGrGrCrUrUrUrUrCrUrGrCrArGrGrUrUrUrArAdTdT / antisense rUrUrArArArCrCrUrGrCrArGrArArArArGrCrCdTdT” the normalised inhibition (eCFP-eYFP dual reporter) was 83.3%.
For “sense rGrGrUrGrArUrGrUrGrUrGrCrArUrUrUrCrUrAdTdT / antisense rUrArGrArArArUrGrCrArCrArCrArUrCrArCrCdAdT”, the normalised inhibition (eCFP-eYFP dual reporter) was 94.7%.
“sense rGrUrUrArUrGrArArArArGrCrCrArGrArGrGrAdTdT / antisense rUrCrCrUrCrUrGrGrCrUrUrUrUrCrArUrArArCdCdA” gave a normalised inhibition (eCFP-eYFP dual reporter) of 49.3%.
In the case of “sense rUrArCrCrGrArUrGrGrGrArArGrUrCrCrUrUrAdTdT / antisense rUrArArGrGrArCrUrUrCrCrCrArUrCrGrGrUrAdGdA”, the normalised inhibition (eCFP-eYFP dual reporter) is reported as 93.1%.
“sense rUrArUrCrCrArCrArCrUrGrUrGrGrArArArCrCdTdT / antisense rGrGrUrUrUrCrCrArCrArGrUrGrUrGrGrArUrAdGdG” showed a normalised inhibition (eCFP-eYFP dual reporter) of 41.2%.
Substance “sense rUrArUrGrGrUrUrArUrGrArArArArGrCrCrArGdTdT / antisense rCrUrGrGrCrUrUrUrUrCrArUrArArCrCrArUrAdCdT” has a normalised inhibition (eCFP-eYFP dual reporter) of 31.8%.
In the case of “sense rUrCrArUrGrArGrCrCrUrGrGrGrGrArArGrArUdTdT / antisense rArUrCrUrUrCrCrCrCrArGrGrCrUrCrArUrGrAdAdG”, the normalised inhibition (eCFP-eYFP dual reporter) is reported as 76.4%.
Work on “sense rUrCrCrArCrArCrUrGrUrGrGrArArArCrCrArUdTdT / antisense rArUrGrGrUrUrUrCrCrArCrArGrUrGrUrGrGrAdTdA” yielded a normalised inhibition (eCFP-eYFP dual reporter) of 85.3%.
